Test results published in patent US8785463B2, “GPR 119 agonists” (Cadila Healthcare Limited, priority 2010, dated 2014).

Columns and labels:
[1] = target: T1, human GPR 119 receptor (Homo sapiens, UniProt Q8TDV5); experiment: cAMP assay in stable cell line expressing recombinant human GPR 119 receptor; type: cell-based; conditions: for Fold increase in cyclic AMP with respective to DMSO: DMSO = 1
T1 construct: expressed in transfected cells
T1 sequence (Q8TDV5 1-335): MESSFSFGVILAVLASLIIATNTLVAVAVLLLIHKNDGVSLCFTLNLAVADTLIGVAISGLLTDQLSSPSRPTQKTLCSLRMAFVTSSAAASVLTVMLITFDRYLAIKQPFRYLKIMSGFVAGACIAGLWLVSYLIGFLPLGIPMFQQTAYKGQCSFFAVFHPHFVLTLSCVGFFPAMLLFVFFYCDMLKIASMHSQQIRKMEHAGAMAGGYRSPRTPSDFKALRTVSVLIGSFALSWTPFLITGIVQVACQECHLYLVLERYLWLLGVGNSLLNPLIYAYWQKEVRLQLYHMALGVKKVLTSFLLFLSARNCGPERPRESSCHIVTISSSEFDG
Text: A stable cell line expressing recombinant human GPR 119 receptor was established and used to investigate the efficacy of the compounds of the invention based on the intracellular levels of cyclic AMP (cAMP) using commercially available cAMP kits.

[2] = test system: db/db mice; experiment: Oral Glucose Tolerance Tests (OGTT) in db/db mice; type: in vivo; conditions: single oral dose 50 mg/kg, glucose load 2 g/kg, AUC glucose excursion vs vehicle control
Protocol: Oral Glucose Tolerance Tests (OGTT) in db/db mice:
db/db mice of 5-7 week age are used for this experiment. Animals were kept on fasting and are grouped based on fasting serum glucose levels and after grouping OGTT was performed. Each animal receive a single dose of vehicle/test compounds (50 mg/kg) administered orally, 30 min post dosing animals are bled for basal glucose level estimation and at the same time glucose load (2 g/kg) will be administered per orally. Blood is collected at time points corresponding to 30, 60 and 120 min after glucose load administration. Serum is separated for determination of glucose levels and change in area under curve for glucose and glucose excursion is calculated from Vehicle control with glucose load Vs water control group without glucose load and provided in Table 4 as % reduction in AUC glucose excursion Vs Vehicle control is calculated.

[3] = test system: C57/BL6 mice; experiment: Oral Glucose Tolerance Tests (OGTT) in C57/BL6 mice; type: in vivo; conditions: single oral dose, glucose load 3 gm/kg, serum glucose AUC, head 50 mg/kg
Protocol: In Vivo Efficacy Studies: Oral Glucose Tolerance Tests (OGTT) in C57/13L6 mice:
C57/BL6 mice of 6-8 week age are used for this experiment. Animals are grouped based on non-fasting serum glucose levels and kept on fasting for overnight (day before OGTT). On the experiment day, […], 30 min post dosing animals are bled for basal glucose level estimation and at the same time glucose load (3 gm/kg) will be administered per orally. Blood is collected at time points corresponding to 20, 40, 60 and 120 min after glucose load administration. Serum is separated for determination of glucose levels and change in area under curve for glucose is calculated and provided in Table 3 as % to reduction in AUC.

SMILES | Fold increase in cyclic AMP with respective to DMSO ([1]; 10 nM compound) [fold] | Fold increase in cyclic AMP with respective to DMSO ([1]; 100 nM compound) [fold] | Fold increase in cyclic AMP with respective to DMSO ([1]; 1 uM compound) [fold] | EC50 [1] [µM] | % reduction in AUC at 50 mg/kg [2] [%] | % reduction in AUC at 50 mg/kg [3] [%]
CCOC(=O)CN1C(=O)S/C(=C\c2ccc(Oc3ncnc(OC4CCN(C(=O)OC(C)(C)C)CC4)c3C)cc2)C1=O [Example 2, (Z)-tert-Butyl 4-((6-(4-((3-(2-ethoxy-2-oxoethyl)-2,4-dioxothiazolidin-5-ylidene)methyl)phenoxy)-5-methylpyrimidin-4-yl)oxy)piperidine-1-carboxylate] | 5.90 | 8.00 | 12.56 | – | 47.3 | 13.0
Cc1c(Oc2ccc(/C=C3\SC(=O)NC3=O)cc2)ncnc1OC1CCN(c2nc(C(C)C)no2)CC1 [Example 7, (Z)-5-(4-((6-((1-(3-iso-Propyl-1,2,4-oxadiazol-5-yl)piperidin-4-yl)oxy)-5-methylpyrimidin-4-yl)oxy)benzylidene)thiazolidine-2,4-dione] | 0.79 | 1.32 | 2.24 | 0.124 | 22.4 | 29.0
Cc1c(Oc2ccc(/C=C3\SC(=O)NC3=O)cc2)ncnc1OC1CCN(C(=O)OC(C)(C)C)CC1 [Example 1, (Z)-tert-Butyl 4-((6-(4-((2,4-dioxothiazolidin-5-ylidene)methy 1)phenoxy)-5-methylpyrimidin-4-yl)oxy)piperidine-1-carboxylate] | 0.90 | 2.27 | 3.96 | 0.088 | 56.2 | 35.0
CC(C)(C)OC(=O)N1CCC(Oc2cc(Oc3ccc(/C=C4\SC(=O)NC4=O)cc3)ncn2)CC1 [Example 12, (Z)-tert-Butyl 4-((6-(4-((2,4-dioxothiazolidin-5-ylidene)methyl)phenoxy)pyrimidin-4-yl)oxy)piperidine-1-carboxylate] | 2.22 | 4.47 | 7.00 | 0.13 | 66.7 | 23.4
Cc1c(Oc2cccc(/C=C3\SC(=O)NC3=O)c2)ncnc1OC1CCN(C(=O)OC(C)(C)C)CC1 [Example 9, (Z)-tert-Butyl 4-((6-(3-((2,4-dioxothiazolidin-5-ylidene)methyl)phenoxy)-5-methylpyrimidin-4-yl)oxy)piperidine-1-carboxylate] | 2.54 | 4.86 | 6.57 | 0.043 | 69.1 | 32.4
CCOC(=O)N1CCC(Oc2ncnc(Oc3cccc(/C=C4\SC(=O)N(C)C4=O)c3)c2C)CC1 [Example 4, (Z)-Ethyl-4-((5-methyl-6-(3-((3-methyl-2,4-dioxothiazoldin-5-ylidene)methy 1)phenoxy)pyrimidin-4-yl)oxy)piperidine-1-carboxylate] | 4.52 | 4.95 | 7.17 | – | – | –

Second part, led by results:

Fold increase in cyclic AMP with respective to DMSO ([1]; 10 nM compound) [fold] | Fold increase in cyclic AMP with respective to DMSO ([1]; 100 nM compound) [fold] | Fold increase in cyclic AMP with respective to DMSO ([1]; 1 uM compound) [fold] | EC50 [1] [µM] | SMILES | % reduction in AUC at 50 mg/kg [2] [%] | % reduction in AUC at 50 mg/kg [3] [%]
– | – | – | 0.071 | CC(C)c1noc(N2CCC(Oc3cc(Oc4cccc(/C=C5\SC(=O)NC5=O)c4)ncn3)CC2)n1 [Example 66, (Z)-5-(3-((6-((1-(3-isopropyl-1,2,4-oxadiazol-5-yl)piperidin-4-yl)oxy)pyrimidin-4-yl)oxy)benzylidene)thiazolidine-2,4-dione] | – | 41.1
1.05 | 1.33 | 2.88 | – | CCOC(=O)CN1C(=O)S/C(=C\c2cccc(Oc3ncnc(OC4CCN(C(=O)OC(C)(C)C)CC4)c3C)c2)C1=O [Example 45, (Z)-tert-Butyl 4-((6-(3-((3-(2-ethoxy-2-oxoethyl)-2,4-dioxothiazolidin-5-ylidene)methyl)phenoxy)-5-methylpyrimidin-4-yl)oxy)piperidine-1-carboxylate] | – | –
0.94 | 1.27 | 1.98 | – | O=C1NC(=O)/C(=C/c2ccc(Oc3cc(OC4CCN(c5ncccn5)CC4)ncn3)cc2)S1 [Example 43, (Z)-5-(4-((6-((1-(Pyrimidin-2-yl)piperidin-4-yl)oxy)pyrimidin-4-yl)oxy)benzylidene)thiazolidine-2,4-dione] | – | –
0.56 | 0.57 | 0.96 | – | COC(=O)N1CCC(Oc2cc(Oc3ccc(/C=C4\SC(=O)NC4=O)cc3)ncn2)CC1 [Example 35, (Z)-Methyl 4-((6-(4-((2,4-dioxothiazolidin-5-ylidene)methyl)phenoxy)pyrimidin-4-yl)oxy)piperidine-1-carboxylate] | – | –
0.83 | 1.36 | 2.72 | – | CC(C)COC(=O)N1CCC(Oc2cc(Oc3cccc(/C=C4\SC(=O)NC4=O)c3)ncn2)CC1 [Example 33, (Z)-Isobutyl 4-((6-(3-((2,4-dioxothiazolidin-5-ylidene)methyl)phenoxy)pyrimidin-4-yl)oxy)piperidine-1-carboxylate] | – | –
1.58 | 1.89 | 5.45 | – | CC(=O)CN1C(=O)S/C(=C\c2ccc(Oc3cc(OC4CCN(C(=O)OC(C)(C)C)CC4)ncn3)cc2)C1=O [Example 46, (Z)-tert-Butyl 4-((6-(4-((2,4-dioxo-3-(2-oxopropyl)thiazolidin-5-ylidene)methyl)phenoxy)pyrimidin-4-yl)oxy)piperidine-1-carboxylate] | – | –
